According to patent publication US20170355743A1, “INSULIN RECEPTOR PARTIAL AGONISTS” (Merck Sharp & Dohme Corp., priority 2014, published 2017):

Tested on: C57BL/6NTac mice
Experiment: Intraperitoneal Insulin Tolerance Test (IP-ITT)
Format: in vivo
Conditions: intraperitoneal injection, two doses per compound (Table 16), lean male C57BL/6NTac mice, 30 to 360 minutes after dose
Experimental: Groups of N=6-8 animals per group were randomized by weight (average about 30 grams). Two days prior to study, the mice were conditioned to dosing with an intraperitoneal injection of 0.9% Sodium Chloride solution at 5 ml/kg dosing volume. On the morning of the study, food was removed two or four hours prior to the study. Blood glucose concentrations were determined at T=0 min (baseline) using a Glucometer. […] Blood glucose levels were determined from tail bleeds taken between 30 to 360 minutes after dose.

B29,B29′-suberoyl-(insulin)2 [Compound B, reference compound]
blood glucose profile at low versus high dose: increased glucose lowering potency
